Test results from patent US6291657A (priority 1993, dated 2001).
“Also recorded” adds a separate entry of the source. Where two headings read alike, the source gives them in different places.

Experiments:
[1] = test system: oligosaccharide biosynthesis in HL-60 cells; assay: Glycopeptide analysis by Con A-SEPHAROSE chromatography, HL-60 cells; type: cell-based, human
[2] = test system: N-linked oligosaccharide processing of gp120 in CHO cells (α-glucosidases I and II); assay: Endo H sensitivity of gp120 expressed in CHO cells (N-linked oligosaccharide processing); type: cell-based, Chinese hamster
Experimental: The arrows indicate the molecular weight of the untreated gp120 (120 kDa) and post endo H digestion (60 kDa). An additional band of low molecular weight (approximately 60 kDa) was present in some lanes and is a non-specific protein precipitated by the solid phase matrix.
The culture of CHO cells expressing soluble recombinant gp120 (from Dr. P. Stevens, MRC AIDS Directed Programme Reagent Project) and the radiolabelling of these cells was carried out by conventional procedure as described by Karlsson et al., J. Biol. Chem. 268, 570-576 (1993). Briefly, CHO cells were harvested mechanically, washed three times with phosphate buffered saline, 0.1M pH 7.2 (PBS) and resuspended in methionine- and cysteine-free RPMI-1640 medium (ICN-Flow Laboratories, High Wycombe, Bucks, U.K.) supplemented with 1% dialysed FCS. Cells (10^7 /ml) were preincubated in the presence or absence of NB-DNJ or NB-DGJ for 1 hr prior to the addition of 100 μCi/ml Tran^35 S-label (ICN-Flow) for 4 hr. The supernatants were collected and concentrated tenfold using a 30 kDa cut-off membrane (Amicon, Danvers, Mass., U.S.A.).
Immunoprecipitations were performed by conventional procedure as described by Karlsson supra. Supernatants were incubated with the mAb ABT 1001 monoclonal antibody (American Biotechnologies Inc., Cambridge, Mass., U.S.A.) at 0.5 μg/100 μl of supernatant for 30 min. at room temperature followed by sheep anti-mouse IgG1-coated magnetic beads (Dynal Ltd., Wirral, Merseyside, U.K., 1.2×10^7 beads per sample) for 1 hr. at 4° C. The beads were washed three times with 2% TRITON® X-100 in PBS and three times with PBS. Gp120 was eluted in […] reducing SDS-PAGE sample buffer with heating (95° C., 5 min.). Each sample was divided into two equal aliquots and 25 μl of dH2 O added to give a final volume of 50 μl. To one half of each sample 2 μl of endoglycosidase H (endo H, 1 unit/ml, Boehringer Mannheim Ltd., Lewes, Sussex, U.K.) was added and the other half left untreated. […]

HL-60 cells = assay: Cytotoxicity in the dose range tested; type: cell-based, human
[3] = test system: cholera toxin binding sites on H9 cells; type: cell-based, human
[4] = test system: oligosaccharide biosynthesis in BW5147 cells; assay: Glycopeptide analysis by Con A-SEPHAROSE chromatography, BW5147 cells; type: cell-based, murine
α-glucosidase I and II = assay: Inhibition of purified processing α-glucosidase I and II; type: biochemical; settings: for inhibition of processing α-glucosidases I and II / N-linked oligosaccharide processing: in words
Experimental: Porcine liver α-glucosidase I and rat liver α-glucosidase II were purified to homogeneity and assayed by conventional procedure using a [^14 C]-glucose labelled Glc3 Man9 GlcNAc2 substrate as previously described by Karlsson et al., J. Biol. Chem. 268, 570-576 (1993).
Enzymes were assayed according to procedure described hereinbefore using
The data from FIG. 8 were […]

[5] = test system: Glc-Cer accumulation in WEHI-3B murine macrophage cells; assay: In vitro Gaucher's disease model: CBE induced glycolipid storage in WEHI-3B cells, 1D-TLC; type: cell-based; settings: for prevention of glycolipid storage in in vitro Gaucher's disease model (in words): CBE
Experimental: In this model, the murine macrophage cell line WEHI-3B was cultured in the presence of an irreversible glucocerebrosidase inhibitor, conduritol β epoxide (CBE), to mimic the inherited disorder found in Gaucher's disease. WEHI-3B cells are well-known, widely distributed and readily available murine macrophage cells. They are described in Cancer Res. 37, 546-550 (1977), and are readily available from the American Type Culture Collection, Rockville, Md, under accession number ATCC TIB 68. The compounds of the invention prevent lysosomal glycolipid storage which is useful for the management of Gaucher's disease and other glycolipid storage disorders as illustrated hereinafter in Table 3. Gaucher's disease is an autosomal recessive disorder characterized by an impaired ability to degrade glucocerebroside (glucosyl ceramide, Glc-Cer) due to mutations in the gene encoding β-glucocerebrosidase (β-D-glucosyl-N-acylsphingosine glucohydrolase, EC 3.2.1.45). This defect results in the lysosomal accumulation of Glc-Cer in cells of the macrophage-monocyte system [Barranger and Ginns, in The Metabolic Basis of Inherited Diseases, ed. Scriver et al., pp. 1677-1698, McGraw-Hill, New York, (1989); Beutler, Science 256, 794-799 (1992)]. By slowing the rate of glycolipid synthesis, the impaired catabolism of Glc-Cer can be offset, thereby leading to the maintenance of a balanced level of Glc-Cer.
FIGS. 5 and 6 show the analysis of NB-DNJ and NB-DGJ in an in vitro Gaucher's disease model.
The in vitro Gaucher's disease model was prepared as follows: WEHI-3B cells (American Type Culture Collection, Rockville, Md., U.S.A.) were maintained in logarithmic phase growth for 14 days in RPMI-1640 medium, 10% FCS, in the presence or absence of 50 μM conduritol β epoxide (CBE, Toronto Research Chemicals, Downsview, Canada) with or without NB-DNJ or NB-DGJ. Cells were passaged every 3 days and compound concentrations maintained throughout. Equal cell numbers (5×10^6) were harvested, extracted in 1 ml chloroform: methanol (2:1 v/v) overnight at 4° C., the extracts centrifuged, the chloroform:methanol extract retained and the pellet re-extracted as above for 2 hr. at room temperature. Pooled extracts were dried under nitrogen, re-dissolved in 10 μl chloroform:methanol (2:1 v/v) and separated by 1D-TLC in chloroform:methanol:water […]. Plates were air dried and visualized using α-naphthol (1% w/v in methanol) followed by 50% (v/v) sulphuric acid.

[6] = biological target: UDP-glucose:N-acylsphingosine glucosyltransferase; assay: Inhibition of UDP-glucose:N-acylsphingosine glucosyltransferase; type: biochemical, rat brain, mouse macrophage (WEHI-3B); settings: rat brain or mouse macrophage homogenates; read-out: IC50
[7] = test system: glycolipid biosynthesis in HL-60 cells; assay: Inhibition of glycolipid biosynthesis in HL-60 cells, [14C]-palmitic acid labelling, 1D-TLC; type: cell-based, human; settings: for minimal effective concentration: Homo sapiens;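 on all read-outs here: cells cultured 24 h with or without test compound, total cellular lipids resolved by one-dimensional TLC and detected by autoradiography, inhibition shown as missing Glc-Cer and gangliosides versus untreated cells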

Structure (SMILES): CCCCN1C[C@H](O)[C@@H](O)[C@@H](O)[C@H]1CO [NB-DGJ, N-butyl deoxygalactonojirimycin]
- Total 3H-mannose recovered ([1]; HL-60): 844322 cpm
- Bi-antennary ([1]; HL-60, percentage of radiolabelled glycopeptides eluted with 10 mM methylglucoside): 17.7%
- Oligo-mannose & hybrid ([1]; HL-60, percentage of radiolabelled glycopeptides eluted with 500 mM methylmannoside): 54.2%
- Tetra- & Tri-antennary ([1]; HL-60, percentage of radiolabelled glycopeptides non-bound): 28.1%
- glycopeptide profile by Con A-SEPHAROSE chromatography ([1]; HL-60 and BW5147): unchanged glycopeptide profile
- inhibition of α-glucosidases I and II suggested by gp120 endo H sensitivity ([2]; 0.5 mM and 5 mM): not acting as an inhibitor of α-glucosidases I and II
- endo H sensitivity of gp120 N-linked glycans ([2]; 0.5 mM or 5 mM (FIG. 7)): partially sensitive to endo H and was indistinguishable from the untreated gp120 molecules
- cytotoxicity (HL-60 cells): non-cytotoxic
- cholera toxin binding [3]: reduction of the binding of cholera toxin
- reduction in cholera toxin binding ([3]; h9 cells, 4320 min): approximately 70%
- Total 3H-mannose recovered [4]: 706873 cpm
- Bi-antennary ([4]; percentage of radiolabelled glycopeptides eluted with 10 mM methylglucoside): 7.2%
- Oligo-mannose & hybrid ([4]; percentage of radiolabelled glycopeptides eluted with 500 mM methylmannoside): 52.4%
- Tetra- & Tri-antennary ([4]; percentage of radiolabelled glycopeptides non-bound): 40.4%
- inhibition of processing α-glucosidases I and II / N-linked oligosaccharide processing (α-glucosidase I and II): does not inhibit N-linked oligosaccharide processing
- inhibition of processing α-glucosidases I and II / N-linked oligosaccharide processing (α-glucosidase I and II; listed as N-butyl DGJ): does not inhibit
- IC50 (α-glucosidase I and II; mixture of purified α-glucosidases I and II): 2130 µM
- prevention of glycolipid storage in in vitro Gaucher's disease model (in words) [5]: as effective as NB-DNJ
- prevention of glycolipid storage in in vitro Gaucher's disease model (in words) ([5]; listed as N-butyl DGJ): offset glucoceramide accumulation
- minimal effective concentration ([5]; Mus musculus, WEHI3B, 336 h, 50 μM CBE, 14 days (FIG. 5), read-out: dose range preventing CBE induced glycolipid storage): 5 to 50 µM
- IC50 [6]: 60.9 µM
- lipid species whose biosynthesis was inhibited ([7]; HL-60, 500 μM, 1D-TLC): inhibited the biosynthesis of Glc-Cer, gangliosides and an unknown lipid species
- inhibition of glycolipid biosynthesis ([7]; HL-60, 500 μM, 1D-TLC (FIG. 1)): specifically inhibited glycolipid biosynthesis
- effect of N-alkyl chain length on inhibition of glycolipid biosynthesis (loss of detectable Glc-Cer) ([7]; HL-60, 0.5 mM, 1D-TLC (FIG. 4), listed as N-butyl DGJ): completely prevented glycolipid biosynthesis; also recorded: completely inhibited glycolipid biosynthesis
- minimal effective concentration ([7]; HL-60, relatively low concentration, read-out: concentration inhibitory of glycolipid biosynthesis): ~50 µM
- minimal effective concentration ([7]; HL-60, 1D-TLC (FIG. 3), partial inhibition, read-out: concentrations as low as which partial inhibition occurred): 0.5 to 5 µM
